US8247530B2, “N-alkylated cyclic peptide melanocortin agonists” (Palatin Technologies, Inc., priority 2005, dated 2012)
Where a SMILES comes first, the peptide text is derived from it. Bridges are numbered along the chain shown (N, C = ends). [ ]: non-standard residue; d: D form. 1Nal = N[C@@H](Cc1cccc2ccccc12)C(=O)O; Nle = CCCC[C@H](N)C(=O)O

Experiments:
[1] = target: T1, hMC3-R (HEK-293 cells) (Homo sapiens, UniProt P41968); test: cAMP functional assay for agonist/antagonist status, MC3-R; format: cell-based; conditions: for agonist/antagonist status as to MC3-R: cAMP assay; for EC50: cAMP accumulation
T1 construct: expressed in transfected cells; host or cells: HEK-293
T1 sequence (P41968 whole entry): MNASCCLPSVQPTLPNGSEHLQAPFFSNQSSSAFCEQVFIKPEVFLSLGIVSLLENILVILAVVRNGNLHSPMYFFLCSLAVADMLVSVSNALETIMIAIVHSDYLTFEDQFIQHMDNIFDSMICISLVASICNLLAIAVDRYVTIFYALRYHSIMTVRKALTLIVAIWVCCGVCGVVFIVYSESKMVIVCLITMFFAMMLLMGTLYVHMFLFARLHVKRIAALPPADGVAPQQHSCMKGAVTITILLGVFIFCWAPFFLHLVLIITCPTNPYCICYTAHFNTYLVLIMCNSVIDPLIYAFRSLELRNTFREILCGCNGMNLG
Method: (§1) Functional evaluation of peptides at melanocortin receptors was performed by measuring the accumulation of intracellular cAMP in HEK-293 cells expressing hMC3-R, hMC4-R or hMC5-R, and in B-16 mouse melanoma cells expressing MC1-R. Cells suspended in Earle's Balanced Salt Solution containing 10 mM HEPES (pH 7.5), 5 mM MgCl2, 1 mM glutamine, 0.5% albumin and 0.3 mM 3-isobutyl-1-methyl-xanthine, a phosphodiesterase inhibitor, were plated in 96 well plates at a density of 0.5×10^5 cells per well. Cells were incubated with the test peptides in the presence or absence of NDP-α-MSH for 1 hour at 37° C. cAMP levels in the cell lysates were measured using an EIA kit (Amersham). Data analysis and EC50 values were determined using nonlinear regression analysis with Prism Graph-Pad software.
(§2) The agonist/antagonist status with respect to MC1-R, MC4-R and MC5-R of certain peptides of the invention was determined. Antagonistic activity was determined by measuring the inhibition of α-MSH-induced or NDP-α-MSH-induced cAMP levels following exposure to the peptides as in the preceding descriptions.

[2] = target: T2, MC4-R (Homo sapiens, UniProt P32245); test: Competitive inhibition Ki (AgRP), MC4-R; format: binding; conditions: AgRP as competing ligand
T2 construct: expressed in transfected cells; host or cells: HEK-293
T2 sequence (P32245 whole entry): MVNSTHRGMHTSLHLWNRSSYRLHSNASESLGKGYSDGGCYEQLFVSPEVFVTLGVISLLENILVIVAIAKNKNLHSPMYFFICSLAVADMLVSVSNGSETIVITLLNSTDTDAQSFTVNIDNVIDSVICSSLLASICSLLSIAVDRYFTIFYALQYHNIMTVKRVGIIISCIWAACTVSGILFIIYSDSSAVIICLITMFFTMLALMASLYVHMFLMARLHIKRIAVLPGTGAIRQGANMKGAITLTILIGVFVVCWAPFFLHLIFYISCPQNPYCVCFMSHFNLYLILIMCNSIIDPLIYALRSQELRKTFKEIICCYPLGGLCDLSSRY

[3] = target: T3, MC1-R (B-16 mouse melanoma cells) (Mus musculus, UniProt Q01727); test: cAMP functional assay for agonist/antagonist status, MC1-R; format: cell-based; conditions: for EC50: cAMP accumulation; for agonist/antagonist status as to MC1-R: cAMP assay; for efficacy relative to NDP-α-MSH, MC1-R: cAMP response ratio to NDP-α-MSH
T3 construct: B-16 mouse melanoma cells (containing MC1-R); endogenous in cells; host or cells: B-16 mouse melanoma cells
T3 sequence (Q01727 whole entry): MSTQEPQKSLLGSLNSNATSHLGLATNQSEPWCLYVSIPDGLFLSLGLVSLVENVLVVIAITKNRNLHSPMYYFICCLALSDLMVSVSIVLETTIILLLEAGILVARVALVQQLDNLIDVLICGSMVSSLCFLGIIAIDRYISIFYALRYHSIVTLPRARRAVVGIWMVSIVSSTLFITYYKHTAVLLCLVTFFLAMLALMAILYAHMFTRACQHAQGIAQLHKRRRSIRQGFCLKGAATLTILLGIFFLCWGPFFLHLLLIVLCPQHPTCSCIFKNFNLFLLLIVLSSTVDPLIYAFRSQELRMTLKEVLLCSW
Method: Data analysis and EC50 values were determined using nonlinear regression analysis with Prism Graph-Pad software.
The agonist/antagonist status with respect to MC1-R, MC4-R and MC5-R of certain peptides of the invention was determined.

[4] = target: T4, hMC4-R (HEK-293 cells) (Homo sapiens, UniProt P32245); test: cAMP functional assay for agonist/antagonist status, MC4-R; format: cell-based; conditions: for agonist/antagonist status as to MC4-R: cAMP assay; for efficacy relative to NDP-α-MSH, MC4-R: cAMP response ratio to NDP-α-MSH
T4 construct: expressed in transfected cells; host or cells: HEK-293
T4 sequence (P32245 whole entry): as the sequence (P32245 whole entry) above
Method: as §1, §2
Evaluation of the molecules to elicit a functional response in HEK-293 cells expressing hMC4-R for agonistic activity was done by measuring the accumulation of intracellular cAMP following treatment. Confluent HEK-293 cells over-expressing MC4-R receptors were detached by enzyme free cell suspension buffer. Cells were suspended in Earle's Balanced Salt Solution containing 10 mM HEPES (pH 7.5), 1 mM MgCl2, 1 mM glutamine, 0.5% albumin and 0.3 mM 3-isobutyl-1-methyl-[…]. The cells were plated in a 96 well plate at a density of 0.5×10^5 cells per well and pre-incubated for 60 minutes. The cells were then challenged with the test peptides dissolved in dimethylsulfoxide (DMSO) at a concentration range of 0.05-5000 nM in a total assay volume of 200 μL for 1 hour at 37° C. The concentration of DMSO was held at 1% in the assay mixture. NDP-α-MSH was used as the reference agonist. At the end of the incubation period the cells were disrupted by the addition of 50 μL lysis buffer from the cAMP EIA kit (Amersham). Complete rupture of the cells was ensured by pipetting the cells. cAMP levels in the cell lysates were measured after appropriate dilution using the EIA kit (Amersham) method. Data analysis and EC50 values were determined by using nonlinear regression analysis with the Prism Graph-Pad software.

[5] = target: T5, MC3-R (Homo sapiens, UniProt P41968); test: Competitive inhibition Ki (AgRP), MC3-R; format: binding; conditions: AgRP as competing ligand
T5 construct: expressed in transfected cells; host or cells: HEK-293
T5 sequence (P41968 whole entry): as the sequence (P41968 whole entry) above
Method: (§3) The assay mixture was incubated for 60 minutes at 37° C., then filtered and the membranes washed three times with ice cold phosphate buffered saline. The filter was dried and counted in a gamma counter for remaining radioactivity bound to the membranes. 100% specific binding was defined as the difference in radioactivity (cpm) bound to cell membranes in the absence and presence of 1 μM NDP-α-MSH. […] Each assay was conducted in triplicate. The Ki (nM) of certain peptides of the invention were determined using similar assay protocols and testing peptides over a wider dose range.

[6] = target: T5, MC3-R; test: Competitive inhibition binding assay using [I125]-NDP-α-MSH, hMC3-R; conditions: radioligand [I125]-NDP-α-MSH, HEK-293 membranes; read-out: Ki (NDP-α-MSH) MC3-R
Method: (§4) The assay tube also contained a chosen concentration of the test peptide of this invention, typically a 1 μM concentration, for determining its efficacy in inhibiting the binding of [I^125]NDP-α-MSH to the receptor.
as §3

[7] = tested on: male Sprague-Dawley rats; test: Penile erection induction in male rats; format: in vivo, rat; conditions: 1000 μg/kg IV, groups of 6 rats, one hour observation
Method: The ability of peptides to induce penile erection (PE) in male rats was evaluated with selected peptides. Male Sprague-Dawley rats weighing 200-250 g were kept on a 12 hour on/off light cycle with food and water ad libitum. All behavioral studies were performed between 10 a.m. and 5 p.m. Groups of 4-8 rats were administered peptides at a variety of doses via an intravenous (IV) route, and may alternatively be administered peptide by an intracerebroventricular (ICV) route. Immediately after treatment, rats were placed into individual polystyrene cages (27 cm long, 16 cm wide, and 25 cm high) for behavioral observation. […] For rats administered peptide by an ICV routes, rats are observed for two hours.
Selected peptides were tested as in Example 5. Peptide was administered by IV routes, and used at dose levels ranging from 1 μg/kg to 1000 μg/kg.

[8] = target: T2, MC4-R; test: Competitive inhibition binding assay using [I125]-NDP-α-MSH, hMC4-R; conditions: radioligand [I125]-NDP-α-MSH, HEK-293 membranes; read-out: Ki (NDP-α-MSH) MC4-R
Method: as §4, §3

[9] = target: T6, hMC5-R (Homo sapiens, UniProt P33032); test: Competitive inhibition binding assay using [I125]-NDP-α-MSH, hMC5-R; conditions: radioligand [I125]-NDP-α-MSH, HEK-293 membranes; read-out: Ki (NDP-α-MSH) MC5-R
T6 construct: expressed in transfected cells; host or cells: HEK-293
T6 sequence (P33032 whole entry): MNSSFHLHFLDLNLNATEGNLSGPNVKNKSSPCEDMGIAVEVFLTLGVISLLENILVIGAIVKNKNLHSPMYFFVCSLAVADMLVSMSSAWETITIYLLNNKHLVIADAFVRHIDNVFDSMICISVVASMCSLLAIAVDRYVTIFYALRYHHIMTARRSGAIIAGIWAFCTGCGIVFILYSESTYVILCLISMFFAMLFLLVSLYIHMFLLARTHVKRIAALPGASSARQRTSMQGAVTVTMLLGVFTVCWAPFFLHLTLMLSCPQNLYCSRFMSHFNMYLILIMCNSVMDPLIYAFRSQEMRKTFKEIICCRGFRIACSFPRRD
Method: as §4, §3

Row | Ki [2] | EC50 [3] | efficacy relative to NDP-α-MSH, MC1-R [3] | efficacy relative to NDP-α-MSH, MC4-R [4] | Ki [5] | EC50 [1] | Ki [6] | Ki [8] | EC50 ([4]; cAMP accumulation) | Ki [9] | efficacy relative to NDP-α-MSH, MC3-R ([1]; cAMP response ratio to NDP-α-MSH) | Structure (SMILES) | agonist/antagonist status as to MC3-R [1] | agonist/antagonist status as to MC1-R [3] | agonist/antagonist status as to MC4-R [4] | rats exhibiting at least one PE [7]
1 | 50 nM | 2300 nM | 1.1 | 0.8 | > 1000 nM |  |  |  |  |  |  | CCCC[C@H](NC(C)=O)C(=O)N[C@H]1CC(=O)NCCCC[C@@H](C(=O)N(C)C)NC(=O)[C@H](Cc2cccc3ccccc23)NC(=O)[C@H](CCCNC(=N)N)NC(=O)[C@@H](Cc2ccccc2)NC(=O)[C@H](Cc2c[nH]c3ccccc23)NC1=O [Example 10, Ac-Nle-cyclo(-Asp-Trp-D-Phe-Arg-Nal 1-Lys)-N(CH3)2] (Ac-[Nle]DW[dF]R[1Nal]K-NMe2; lactam 2-7 (inferred)) | inactive | agonist (response ratio compared to NDP-α-MSH of 0.7 and above were classified as full agonists) | agonist (response ratio compared to NDP-α-MSH of 0.7 and above were classified as full agonists) | 
2 | 0.15 nM |  |  |  | 9 nM | 3 nM | 11 nM | 0.34 nM | 0.6 nM | 5 nM |  | CCCC[C@H](NC(C)=O)C(=O)N[C@H]1CC(=O)NCCCC[C@@H](C(=O)NCC)NC(=O)[C@H](Cc2c[nH]c3ccccc23)NC(=O)[C@H](CCCNC(=N)N)NC(=O)[C@@H](Cc2ccccc2)NC(=O)[C@H](Cc2c[nH]cn2)NC1=O [Example 7, Ac-Nle-cyclo(-Asp-His-D-Phe-Arg-Trp-Lys)-NH—CH2—CH3] | agonist (response ratio compared to NDP-α-MSH of 0.7 and above were classified as full agonists) |  | agonist (response ratio compared to NDP-α-MSH of 0.7 and above were classified as full agonists) | 100%
3 | 7 nM | 8 nM | 0.6 | 0.6 |  | 208 nM |  |  |  |  | 1.0 | CCCC[C@H](NC(C)=O)C(=O)N[C@H]1CC(=O)NCCCC[C@@H](C(=O)NCC)NC(=O)[C@H](Cc2cccc3ccccc23)NC(=O)[C@H](CCCNC(=N)N)NC(=O)[C@@H](Cc2ccccc2)NC(=O)[C@H](Cc2c[nH]cn2)NC1=O [Example 9, Ac-Nle-cyclo(-Asp-His-D-Phe-Arg-Nal 1-Lys)-NH—CH2—CH3] | agonist (response ratio compared to NDP-α-MSH of 0.7 and above were classified as full agonists) | partial agonist (Peptides with a ratio from 0.1 to 0.7 were classified as partial agonists) | partial agonist (Peptides with a ratio from 0.1 to 0.7 were classified as partial agonists) | 100%
